Our source for the IC50 values is patent US20260001871A1, “TRIAZOLE DERIVATIVES AS MODULATORS OF MAS-RELATED G-PROTEIN RECEPTOR D” (ESCIENT PHARMACEUTICALS, INC., priority 2022, published 2026).

The target in the assay is human MRGPRD (Homo sapiens, UniProt Q8TDS7). Nature of the assay: MRGPRD antagonist activity, IP-One HTRF assay in CHO cells stably expressing human MRGPRD (versus 100 μM β-Alanine agonist). It counts as cell-based. The protocol: Chinese Hamster Ovary (CHO) cells stably expressing human MRGPRD (Eurofins, San Diego CA) were plated in a 384-well plate at 20,000 cells per well in 12 μL of Optimem (Fisher Scientific 11-058-021). Plates were kept in the incubator at 37° C. overnight. Antagonists were solubilized at a concentration of 10 mM in DMSO, and the agonists were solubilized to stock concentrations of either 50 mM in H2O (β-Alanine) or 10 mM in DMSO (all others) and then diluted in assay buffer (final concentrations of 5.7 mM Tris-HCl, 43 mM NaCl, 50 mM LiCl, pH=8). The concentration of DMSO was normalized across the plate. Antagonists were added to the plate using a Tecan D300 Digital Dispenser at nanoliter/picoliter volumes and 2 μL of agonists in assay buffer were added to each well for a final assay volume of 14 μL. Plates were covered and incubated for 1 h at 37° C. and then for 1 h at room temperature. IP-1 standards and HTRF detection reagents were added according to an IP-One—Gq Kit purchased from Cisbio (part number 621PAPEJ) and incubated in the dark for 1 h at room temperature. Assay plates were read on either a Molecular Devices SpectraMax iD5 plate reader or a BMG ClarioStar plate reader. The HTRF ratio was calculated form the raw data and graphed using GraphPad Prism to calculate IC50 values. Data are expressed as average IC50 values and average percent antagonism calculated as a percent of the maximum efficacy response. For these studies, the variability of the data was assessed by determining the standard error of mean (SEM).
Sequence of human MRGPRD (Q8TDS7 whole entry): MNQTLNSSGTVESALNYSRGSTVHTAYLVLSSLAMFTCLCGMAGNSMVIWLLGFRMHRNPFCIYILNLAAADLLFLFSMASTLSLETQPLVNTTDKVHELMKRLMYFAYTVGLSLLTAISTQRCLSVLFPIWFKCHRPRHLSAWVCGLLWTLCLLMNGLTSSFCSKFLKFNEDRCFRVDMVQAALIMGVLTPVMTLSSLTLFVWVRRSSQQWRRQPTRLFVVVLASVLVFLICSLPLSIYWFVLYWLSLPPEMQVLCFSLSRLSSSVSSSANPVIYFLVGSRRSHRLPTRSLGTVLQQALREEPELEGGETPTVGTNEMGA
The activity ranges are denoted as follows: “+++++” denotes antagonist activity<100 nM; “++++” denotes antagonist activity between 100 and 500 nM; “+++” denotes activity between 500 and 1000 nM; “++” denotes activity between 1000 and 3000 nM; and “+” denotes activity>3000 nM.
With `O=C(Nc1ccncc1)c1nnn(-c2ccc(-c3ccc(C(F)(F)F)cc3)cc2)c1C1CC1` [Compound 7-66], the concentration for half-maximal inhibition (IC50) lay within 100 to 500 nM.
In turn, `CC(C)C(=O)c1cccc(-c2ccc(-n3nnc(C(=O)Nc4ccncc4)c3C3CC3)cc2)c1` [Compound 7-67] had a 50% inhibitory concentration (IC50) of 100 to 500 nM.
As to `Cn1nc(-c2ccccc2)cc1-c1ccc(-n2nnc(C(=O)Nc3ccncc3)c2C2CC2)cc1` [Compound 7-68], the IC50 lay in the range of 100 to 500 nM.
In turn, `O=C(Nc1ccncc1)c1nnn(-c2ccc(-c3ccc(CO)cc3)cc2)c1C1CC1` [Compound 7-69] gave an IC50 of 100 to 500 nM.
Compound `COc1cc(-c2ccc(-n3nnc(C(=O)Nc4ccncc4)c3C3CC3)cc2)ccc1C#N` [Compound 7-70] had an IC50 of 100 to 500 nM.
Compound `CS(=O)(=O)c1cccc(-c2ccc(-n3nnc(C(=O)Nc4ccncc4)c3C3CC3)cc2)c1` [Compound 7-71] returned a 50% inhibitory concentration (IC50) of 100 to 500 nM.
Compound `Cc1nn(C)cc1-c1ccc(-n2nnc(C(=O)Nc3ccncc3)c2C2CC2)cc1` [Compound 7-72] registered a half-inhibitory concentration (IC50) of 100 to 500 nM.
With `Cc1cnn(C)c1-c1ccc(-n2nnc(C(=O)Nc3ccncc3)c2C2CC2)cc1` [Compound 7-73], the IC50 lay in the range of 100 to 500 nM.
The figure for `CC(C)C(=O)c1ccc(-c2ccc(-n3nnc(C(=O)Nc4ccncc4)c3C3CC3)cc2)cc1` [Compound 7-74] is 100 to 500 nM.
The compound `CC(=O)c1ccc(-c2ccc(-n3nnc(C(=O)Nc4ccncc4)c3C3CC3)cc2)c(F)c1` [Compound 7-75] yielded an IC50 of 100 to 500 nM.
`Cc1cc(NC(=O)c2nnn(-c3ccc(-c4ccccc4)cc3)c2C2CC2)ccn1` [Compound 7-76]: the IC50 is 100 to 500 nM.
Regarding `O=C(Nc1ccncc1)c1nnn(-c2ccc(-c3ccc[nH]3)cc2)c1C1CC1` [Compound 7-77], the IC50 is 100 to 500 nM.
Compound `Cn1ncc(-c2ccc(-n3nnc(C(=O)Nc4ccncc4)c3C3CC3)cc2)n1` [Compound 7-78] registered an IC50 of 100 to 500 nM.
`O=C(Nc1ccncc1)c1nnn(-c2ccc(-c3cnsc3)cc2)c1C1CC1` [Compound 7-79] yielded an IC50 of 100 to 500 nM.
The figure for `CC(=O)c1cccc(-c2ccc(-n3nnc(C(=O)Nc4ccncc4)c3C3CC3)cc2)c1` [Compound 7-80] is 100 to 500 nM; for `Cc1cc(NC(=O)c2nnn(-c3ccc(-c4ccc(F)cc4)cc3)c2C2CC2)ccn1` [Compound 7-81] it is 100 to 500 nM.
Turning to `Cc1cc(NC(=O)c2nnn(-c3ccc(-c4ccccc4)cc3OC(F)(F)F)c2C2CC2)ccn1` [Compound 7-82], the 50% inhibitory concentration (IC50) was in the range of 100 to 500 nM.
`CC(O)c1ccc(-c2ccc(-n3nnc(C(=O)Nc4ccncc4)c3C3CC3)cc2)cc1` (centres unmarked) [Compound 7-83] registered a concentration for half-maximal inhibition (IC50) of 100 to 500 nM.
Turning to `COc1ccc(-c2ccc(-n3nnc(C(=O)Nc4ccncc4)c3C3CC3)cc2)cc1C` [Compound 7-84], the half-maximal inhibitory concentration (IC50) is 100 to 500 nM.
The figure for `CC(=O)c1cccc(-c2ccc(-n3nnc(C(=O)Nc4ccncc4)c3C3CC3)cc2)c1F` [Compound 7-85] is 100 to 500 nM; for `CCCn1cc(-c2ccc(-n3nnc(C(=O)Nc4ccncc4)c3C3CC3)cc2)cn1` [Compound 7-86] it is 100 to 500 nM.
As for `Cc1cc(NC(=O)c2nnn(-c3ccc(-c4ccc(C#N)c(F)c4)cc3)c2C2CC2)cc(C)n1` [Compound 7-87], the concentration for half-maximal inhibition (IC50) lay in the range of 100 to 500 nM.
`O=C(Nc1ccncc1)c1nnn(-c2ccc(-c3cnn(C4CC4)c3)cc2)c1C1CC1` [Compound 7-88] yielded an IC50 of 100 to 500 nM.
Regarding `Cc1cnc(-c2ccc(-n3nnc(C(=O)Nc4ccncc4)c3C3CC3)cc2)s1` [Compound 7-89], the IC50 was in the range of 100 to 500 nM.
For the compound `O=C(Nc1ccncc1)c1nnn(-c2ccc(-c3ccc(Cl)cc3)cc2)c1C1CC1` [Compound 7-90], the IC50 was in the range of 100 to 500 nM.
The figure for `CCc1cccc(-c2ccc(-n3nnc(C(=O)Nc4ccncc4)c3C3CC3)cc2)c1` [Compound 7-91] is 100 to 500 nM.
The figure for `CCn1nccc1-c1ccc(-n2nnc(C(=O)Nc3ccncc3)c2C2CC2)cc1` [Compound 7-92] is 100 to 500 nM.
In turn, `CS(=O)(=O)c1ccc(-c2ccc(-n3nnc(C(=O)Nc4ccncc4)c3C3CC3)cc2)cc1` [Compound 7-93] showed an IC50 of 100 to 500 nM.
Regarding `O=C(Nc1ccncc1)c1nnn(-c2ccc(-c3n[nH]c4c3CCCC4)cc2)c1C1CC1` [Compound 7-94], the IC50 is 100 to 500 nM.
Compound `Cc1ccc(CNC(=O)c2nnn(-c3ccc(-c4ccc(C#N)cc4C)cc3)c2C2CC2)cn1` [Compound 7-95] had a concentration for half-maximal inhibition (IC50) of 100 to 500 nM.
`Cc1ccccc1-c1ccc(-n2nnc(C(=O)Nc3ccncc3)c2C2CC2)cc1` [Compound 7-96]: the IC50 lay within 100 to 500 nM.
As for `CCn1cc(-c2ccc(-n3nnc(C(=O)Nc4ccncc4)c3C3CC3)cc2)cn1` [Compound 7-97], the figure is 100 to 500 nM; as for `CN(C)c1ccc(-c2ccc(-n3nnc(C(=O)Nc4ccncc4)c3C3CC3)cc2)cc1` [Compound 7-98], 100 to 500 nM; as for `O=C(Nc1ccncc1)c1nnn(-c2ccc(-c3n[nH]c4ncccc34)cc2)c1C1CC1` [Compound 7-99], 100 to 500 nM.
Regarding `Cc1c(-c2ccc(-n3nnc(C(=O)Nc4ccncc4)c3C3CC3)cc2)c(CO)nn1C` [Compound 7-100], the IC50 was in the range of 100 to 500 nM.
In the case of `O=C(Nc1ccncc1)c1nnn(-c2ccc(-c3cccc(Cl)c3)cc2)c1C1CC1` [Compound 7-101], the concentration for half-maximal inhibition (IC50) is 100 to 500 nM.
Regarding `Cc1n[nH]c(C)c1-c1ccc(-n2nnc(C(=O)Nc3ccncc3)c2C2CC2)cc1` [Compound 7-102], the half-inhibitory concentration (IC50) is 100 to 500 nM.
In turn, `O=C(Nc1ccncc1)c1nnn(-c2ccc(-c3ccn(-c4ccccc4)n3)cc2)c1C1CC1` [Compound 7-103] gave an IC50 of 100 to 500 nM.
`CC(=O)c1ccc(-c2ccc(-n3nnc(C(=O)Nc4ccncc4)c3C3CC3)cc2)cc1F` [Compound 7-104] displayed a half-maximal inhibitory concentration (IC50) of 100 to 500 nM.
As for `O=C(Nc1ccncc1)c1nnn(-c2ccc(-c3cnoc3)cc2)c1C1CC1` [Compound 7-105], the figure is 100 to 500 nM; as for `CC(C)n1nccc1-c1ccc(-n2nnc(C(=O)Nc3ccncc3)c2C2CC2)cc1` [Compound 7-106], 100 to 500 nM; as for `O=C(Nc1ccncc1)c1nnn(-c2ccc(-c3cccc(CC(F)(F)F)c3)cc2)c1C1CC1` [Compound 7-107], 100 to 500 nM.
`Cc1ccc(CNC(=O)c2nnn(-c3ccc(-c4cnn(Cc5ccccc5)c4)cc3)c2C2CC2)cn1` [Compound 7-108] came in with an IC50 of 100 to 500 nM.
`Cn1nc(C2CC2)cc1-c1ccc(-n2nnc(C(=O)Nc3ccncc3)c2C2CC2)cc1` [Compound 7-109] gave an IC50 of 100 to 500 nM.
As for `Cc1cn(C)nc1-c1ccc(-n2nnc(C(=O)Nc3ccncc3)c2C2CC2)cc1` [Compound 7-110], the figure is 100 to 500 nM; as for `Cn1nc(-c2ccc(-n3nnc(C(=O)Nc4ccncc4)c3C3CC3)cc2)cc1-c1ccccc1` [Compound 7-111], 100 to 500 nM; as for `COc1ccccc1-c1ccc(-n2nnc(C(=O)Nc3ccncc3)c2C2CC2)cc1` [Compound 7-112], 100 to 500 nM.
As for `Cc1cccc(-c2ccc(-n3nnc(C(=O)Nc4ccncc4)c3C3CC3)cc2)c1` [Compound 7-113], the figure is 500 to 1000 nM.
For the compound `O=C(Nc1ccncc1)c1nnn(-c2ccc(C3=CCOCC3)cc2)c1C1CC1` [Compound 7-114], the concentration for half-maximal inhibition (IC50) fell in the range of 500 to 1000 nM.
`Cc1nc(-c2ccc(-n3nnc(C(=O)Nc4ccncc4)c3C3CC3)cc2)sc1C` [Compound 7-115]: the concentration for half-maximal inhibition (IC50) lay in the range of 500 to 1000 nM.
For `O=C(Nc1ccncc1)c1nnn(-c2ccc(-c3ccnn3C3CCC3)cc2)c1C1CC1` [Compound 7-116], the IC50 lay in the range of 500 to 1000 nM.
`CC(O)c1cccc(-c2ccc(-n3nnc(C(=O)Nc4ccncc4)c3C3CC3)cc2)c1` (centres unmarked) [Compound 7-117] registered an IC50 of 500 to 1000 nM.
`Cc1nn(C(F)F)cc1-c1ccc(-n2nnc(C(=O)Nc3ccncc3)c2C2CC2)cc1` [Compound 7-118] came in with a half-inhibitory concentration (IC50) of 500 to 1000 nM.
As to `Cc1c[nH]nc1-c1ccc(-n2nnc(C(=O)Nc3ccncc3)c2C2CC2)cc1` [Compound 7-119], the IC50 was 500 to 1000 nM.
For `Cc1c(-c2ccc(-n3nnc(C(=O)Nc4ccncc4)c3C3CC3)cc2)c(C#N)nn1C` [Compound 7-120], the concentration for half-maximal inhibition (IC50) lay in the range of 500 to 1000 nM.
Consider `Cc1cc(-c2ccc(-n3nnc(C(=O)Nc4ccncc4)c3C3CC3)cc2)c(C)s1` [Compound 7-121], for which the half-inhibitory concentration (IC50) was in the range of 500 to 1000 nM.
Compound `O=C(Nc1ccncc1)c1nnn(-c2ccc(-c3cccc(C(F)F)c3)cc2)c1C1CC1` [Compound 7-122] yielded a concentration for half-maximal inhibition (IC50) of 500 to 1000 nM.
`O=C(Nc1ccncc1)c1nnn(-c2ccc(-c3cnn(CC(F)(F)F)c3)cc2)c1C1CC1` [Compound 7-123] registered an IC50 of 500 to 1000 nM.
With `Cn1cnc(-c2ccc(-n3nnc(C(=O)Nc4ccncc4)c3C3CC3)cc2)c1` [Compound 7-124], the IC50 lay within 500 to 1000 nM.
`O=C(Nc1ccncc1)c1nnn(-c2ccc(-c3ccns3)cc2)c1C1CC1` [Compound 7-125] had an IC50 of 500 to 1000 nM.
With `Cn1cc(-c2ccc(-n3nnc(C(=O)Nc4ccncc4)c3C3CC3)cc2)cn1` [Compound 7-126], the IC50 lay in the range of 500 to 1000 nM.
The compound `O=C(Nc1ccncc1)c1nnn(-c2ccc(-c3ccc(C4CCC4)cc3)cc2)c1C1CC1` [Compound 7-127] gave a half-maximal inhibitory concentration (IC50) of 500 to 1000 nM.
